Results as given in US7838565B2, “Use of cyclohexenone derivatives in the manufacture of a medicament for treating diabetic complications” (Meiji Dairies Corporation, priority 2001, dated 2010).
Values joined by “and” are separate entries in the source; they are usually repeats but may differ in a detail not shown here. Identical values can stand only once.

What was measured:
Assay type in all cases: in vivo
[1] = test system: model rat of diabetes (streptozotocin); test: Test 1: neural stimulus conduction rate (sciatic nerve) in STZ diabetes model rat; settings: STZ (65 mg/kg i.p.) diabetes rat, 8 mg/kg daily i.p. for 8 weeks, mean ± S.E.
Procedure: (§1) To a rat, 65 mg/kg of streptozotocin (STZ) was administered intraperitoneally to prepare a model rat of diabetes. After intraperitoneal administration of Compound 4 obtained in Preparation Example 4 at a daily dose of 8 mg/kg for 8 weeks from two days after administration of STZ, the conduction rate of stimulus to sciatic nerve was measured by inserting a needle electrode for potential measurement into the vicinity of the right sciatic nerve, right Achilles tendon, and right plantar. Measurement was conducted three times and the mean of them was designated as the nerve stimulus conduction rate of the rat. Each group consisted of 10 to 12 rats.

[2] = test system: model rat of diabetes (streptozotocin); test: Test 2: maximum quantity excreted by single urination, metabolic cage, STZ diabetes model rat; settings: 8 mg/kg daily i.p. for 8 weeks, recorded for 24 hours in metabolic cage, mean ± S.E.
Procedure: as §1
In a similar manner to Test 1, Compound 4 obtained in Preparation Example 4 was administered intraperitoneally to a rat at a daily dose of 8 mg/kg day for 8 weeks from two days after administration of STZ. Its urination pattern such as urination frequency and urination amount was then recorded for 24 hours at 2.5-min intervals by using a metabolic cage.

[3] = test system: model rat of diabetes (streptozotocin); test: Test 3: bladder capacity and urination efficiency by intravesical pressure measurement under anesthesia, STZ diabetes model rat; settings: 8 mg/kg daily i.p. for 8 weeks, mean ± S.E.
Procedure: as §1
In a similar manner to Test 1, Compound 4 obtained in Preparation Example 4 was administered intraperitoneally to a rat at a daily dose of 8 mg/kg for 8 weeks from two days after administration of STZ. The intravesical pressure of the rat was then measured under anesthesia, whereby bladder capacity and urination efficiency were determined.
The urination efficiency was determined from an excreted quantity/bladder capacity ratio.
Urination efficiency (%)=100×excreted quantity/bladder capacity

CC1=C(CCCCCCCCCCCCCCCO)C(C)(C)CCC1=O [Compound 4, 3-(15-Hydroxypentadecyl)-2,4,4-trimethyl-2-cyclohexen1-one]
Conduction rate of stimulus to nerve [1]: 45.5 m/sec and 45.5 ± 1.2 m/sec | Maximum amount excreted by single urination [2]: 3.71 ± 0.26 mL | Bladder capacity (urination-inducing) [3]: 0.54 ± 0.07 mL | Urination efficiency (100×excreted quantity/bladder capacity) [3]: 75.0±6.1%
